{"source": "patent US11191809B2", "about": "“Composition in powder form comprising iron-milk protein complexes and probiotic bacteria” (NESTEC S.A., priority 2016, dated 2021)", "system": "probiotic bacteria", "experiment": "Viability of probiotic bacteria with iron sources (general finding of the inventors)", "type": "cell-based", "details": "general statement; reconstitution of powder with a liquid", "data": [{"compound": "O.O.O.O.O.O.O.O=S(=O)([O-])[O-].[Fe+2]", "note": "[ferrous sulphate heptahydrate]", "values": [{"measurement": "loss of viability of probiotic bacteria", "result": "significant loss of viability"}]}]}
